# Results from US6063791A, “N-benzenesulfonyl-L-proline derivatives, method for preparing and therapeutic use” (Fournier Industrie et Sante, priority 1996, dated 2000).
# Where a name gives a salt, the structure may show the parent alone.
# Target: T1, guinea-pig B2 receptor (Cavia porcellus, UniProt O70526)
# T1 construct: Ileum segments are isolated from male guinea-pigs; tissue Iffa Credo, l'Arbresle, France (animals); host or cells: ileum membranes of male Dunkin-Hartley guinea-pigs
# T1 sequence (O70526 1-372): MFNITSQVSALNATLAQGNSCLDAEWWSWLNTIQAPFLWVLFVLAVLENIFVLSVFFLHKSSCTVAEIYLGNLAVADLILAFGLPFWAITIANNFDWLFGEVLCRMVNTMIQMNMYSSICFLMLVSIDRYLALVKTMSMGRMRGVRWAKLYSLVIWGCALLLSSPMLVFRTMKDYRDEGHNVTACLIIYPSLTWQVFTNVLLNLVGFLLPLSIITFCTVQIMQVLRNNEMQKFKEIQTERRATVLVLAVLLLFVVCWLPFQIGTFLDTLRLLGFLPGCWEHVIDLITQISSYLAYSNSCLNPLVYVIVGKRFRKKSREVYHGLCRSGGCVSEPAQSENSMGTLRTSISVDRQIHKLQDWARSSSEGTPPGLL
# Assay: Inhibition of [3H]-bradykinin binding to guinea-pig ileum membranes
# Conditions: test compound at 10^-6 M, [3H]-bradykinin 120 pM, 90 min at 20° C., read-out: Activity (percentage inhibition of the binding of [3H]-bradykinin)
# Method: The following pharmacological test is used: Ileum segments are isolated from male guinea-pigs [of the Dunkin-Hartley strain (Iffa Credo, l'Arbresle, France)] and ground in the following TES buffer: TES 25 mM, 1,10-phenanthroline 1 mM (pH 6.8), bacitracin 140 μg/ml, BSA 1 g/l. The membranes are then isolated by centrifugation (18,000 rpm; 20 min; 4° C.). The binding studies are carried out in this TES buffer using [^3 H]-bradykinin (120 pM) and 50 μg of membrane protein per test (final volume 500 μl) with an equilibrium time of 90 min at 20° C. The percentage inhibition of the binding of [^3 H]-bradykinin is then determined in the presence of one of the test compounds according to the invention at a concentration of 10^-6 M.
# The results obtained from these tests (shown as "activity") are collated in Table I below with reference to the Examples given in the description. In this Table, Pos indicates the position of the amidine group on the aromatic (or heteroaromatic) ring relative to the group B; in the "Salt" column, Ch1 denotes that the compound is in the form of the hydrochloric acid salt and Ms denotes that it is in the form of the methanesulfonic acid salt.
row,inhibition at 1 µM,SMILES
1,98%,"Cc1cc(C)c2cccc(OCc3c(Cl)ccc(S(=O)(=O)N4CCC[C@H]4C(=O)NCCCCNC(=O)c4ccc(C(=N)N)cc4)c3Cl)c2n1 [Example 19, 1-[[3-[(2,4-Dimethylquinolin-8-yloxymethyl]-2,4-dichlorophenyl]sulfonyl]-N-[4-[[4-(aminoiminomethyl)phenyl]carbonylamino]butyl]-2(S)-pyrrolidinecarboxamidedihydrochloride]"
2,95.5%,"Cc1cc(C)c2cccc(OCc3c(Cl)ccc(S(=O)(=O)N4CCC[C@H]4C(=O)NCCNC(=O)COc4ccc(C(=N)N)cc4)c3Cl)c2n1 [Example 4, 1-[[3-[(2,4-Dimethylquinolin-8-yl)oxymethyl]-2,4-dichlorophenyl]sulfonyl]-N-[2-[[2-[4(aminoiminomethyl)phenoxy]-1-oxoethyl]amino]ethyl]-2(S)-pyrrolidinecarboxamide dihydrochloride]"
3,100%,"Cc1cc(C)c2cccc(OCc3c(Cl)ccc(S(=O)(=O)N4CCC[C@H]4C(=O)NCCCCCNC(=O)c4ccc(C(=N)N)cc4)c3Cl)c2n1 [Example 21, 1-[[3-[(2,4-Dimethylquinolin-8-yl)oxymethyl]-2,4-dichlorophenyl]sulfonyl]-N-[5-[[4-(aminoiminomethyl)phenyl]carbonylamino]pentyl]-2(S)-pyrrolidinecarboxamide dihydrochloride]"
4,97.5%,"Cc1cc(C)c2cccc(OCc3c(Cl)ccc(S(=O)(=O)N4CCC[C@H]4C(=O)NCCCNC(=O)Cc4ccc(C(=N)N)cc4)c3Cl)c2n1 [Example 8, 1-[[3-[(2,4-Dimethylquinolin-8-yl)oxymethyl]-2,4-dichlorophenyl]sulfonyl]-N-[-[[2-[4(aminoiminomethyl)phenyl]-1-oxoethyl]amino]propyl]-2(S)-pyrrolidinecarboxamide dihydrochloride]"
5,99%,"Cc1cc(C)c2cccc(OCc3c(Cl)ccc(S(=O)(=O)N4CCC[C@H]4C(=O)NCCCNC(=O)c4ccc(C(=N)N)cc4)c3Cl)c2n1 [Example 6, 1-[[3-[(2,4-Dimethylquinolin-8-yl)oxymethyl]-2,4-dichlorophenyl]sulfonyl]-N-[3-[[4-(aminoiminomethyl)phenyl]carbonylamino]propyl]-2(S)-pyrrolidine-carboxamide dihydrochloride]"
6,92%,"Cc1cc(C)c2cccc(OCc3c(Cl)ccc(S(=O)(=O)N4CCC[C@H]4C(=O)NCCNC(=O)c4ccc(C(=N)N)cc4)c3Cl)c2n1 [Example 2, 1-[[3-[(2,4-Dimethylquinolin-8-yl)oxymethyl]-2,4-dichlorophenyl]sulfonyl]-N-[2-[[4-(aminoiminomethyl)phenyl]carbonylamino]ethyl]-2(S)-pyrrolidine-carboxamide dihydrochloride]"
7,97%,"CCN(CCCNC(=O)[C@@H]1CCCN1S(=O)(=O)c1ccc(Cl)c(COc2cccc3c(C)cc(C)nc23)c1Cl)C(=O)c1ccc(C(=N)N)cc1 [Example 14, 1-[[3-[(2,4-Dimethylquinolin-8-yl)oxymethyl]-2,4-dichlorophenyl]sulfonyl]-N-3-[[ethyl]-[[4-(aminoiminomethyl)phenyl]carbonyl]amino]propyl]-2(S)-pyrrolidine carboxamide dihydrochloride]"
8,100%,"Cc1cc(C)c2cccc(OCc3c(Cl)ccc(S(=O)(=O)N4CCC[C@H]4C(=O)NCCCN(C)C(=O)c4ccc(C(=N)N)cc4)c3Cl)c2n1 [Example 16, 1-[[3-[(2,4-Dimethylquinolin-8-yl)oxymethyl]-2,4-dichlorophenyl]sulfonyl]-N-[3-[[methyl]-[[4(aminoiminomethyl)phenyl]carbonyl]amino]propyl]-2(S)-pyrrolidinecarboxamide dihydrochloride]"
9,98.8%,"Cc1cc(C)c2cccc(OCc3c(Cl)ccc(S(=O)(=O)N4CCC[C@H]4C(=O)NCCCNC(=O)COc4ccc(C(=N)N)cc4)c3Cl)c2n1 [Example 10, 1-[[3-[(2,4-Dimethylquinolin-8-yl)oxymethyl]-2,4-dichlorophenyl]sulfonyl]-N-[3-[[2-[4-(aminoiminomethyl)phenoxy]-1-oxoethyl]amino]propyl]-2(S)-pyrrolidinecarboxamide dihydrochloride]"
